From ChEMBL document CHEMBL1127535, “Molecular similarity, quantitative chirality, and QSAR for chiral drugs” (J Med Chem, 1994)

Columns and labels:
[1] = target: Sigma non-opioid intracellular receptor 1 (Rattus norvegicus) (UniProt Q9R0C9); experiment: Displacement of (+)-3PPP from sigma receptor of rat brain membrane
[2] = target: D(2) dopamine receptor (Rattus norvegicus) (UniProt P61169); experiment: Displacement of spiperone from dopamine receptor D2 of rat brain membrane
Sequence of D(2) dopamine receptor (Rattus norvegicus) (P61169 whole entry): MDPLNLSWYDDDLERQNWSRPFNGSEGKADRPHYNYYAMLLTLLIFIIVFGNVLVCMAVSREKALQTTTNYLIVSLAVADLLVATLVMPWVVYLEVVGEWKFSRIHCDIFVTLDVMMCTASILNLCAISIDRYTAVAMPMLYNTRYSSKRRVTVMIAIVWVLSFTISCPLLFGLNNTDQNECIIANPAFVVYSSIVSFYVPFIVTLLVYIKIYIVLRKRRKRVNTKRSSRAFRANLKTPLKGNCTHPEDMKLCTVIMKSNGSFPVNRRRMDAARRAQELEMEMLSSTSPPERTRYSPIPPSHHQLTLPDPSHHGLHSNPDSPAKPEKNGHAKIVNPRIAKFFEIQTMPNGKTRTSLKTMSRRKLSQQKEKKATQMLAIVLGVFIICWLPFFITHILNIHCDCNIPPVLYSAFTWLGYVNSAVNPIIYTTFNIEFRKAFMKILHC

Sequence of Sigma non-opioid intracellular receptor 1 (Rattus norvegicus) (Q9R0C9 whole entry): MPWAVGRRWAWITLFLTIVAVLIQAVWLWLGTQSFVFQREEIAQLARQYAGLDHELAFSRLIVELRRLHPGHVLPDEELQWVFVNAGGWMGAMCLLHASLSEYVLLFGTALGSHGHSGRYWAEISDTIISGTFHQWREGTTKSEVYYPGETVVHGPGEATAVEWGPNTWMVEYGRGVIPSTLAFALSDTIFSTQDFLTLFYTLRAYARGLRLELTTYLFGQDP

| Compound | Log IC50 [1] | Log IC50 [2] |
| --- | --- | --- |
| CCCCN1CCC[C@@H](c2cccc(O)c2)C1 | 1.51 µM | 0.56 µM |
| Oc1cccc([C@@H]2CCCNC2)c1 | 1.19 µM | 0.24 µM |
| CCCCN1CCC[C@H](c2cccc(O)c2)C1 | 2.05 µM | 0.43 µM |
| CC(C)N1CCC[C@@H](c2cccc(O)c2)C1 | 0.68 µM | 0.45 µM |
| CCc1ccc(N2CCC[C@@H](c3cccc(O)c3)C2)cc1 | 1.8 µM | 1.36 µM |
| CC(C)N1CCC[C@H](c2cccc(O)c2)C1 | 0.61 µM | 1.08 µM |
| CN1CCC[C@H](c2cccc(O)c2)C1 | 0.43 µM | 0.61 µM |
| CCCN1CCC[C@@H](c2cccc(O)c2)C1 | 0.81 µM | – |
| CCCN1CCC[C@H](c2cccc(O)c2)C1 | 1.52 µM | – |
| CCc1ccc(N2CCC[C@H](c3cccc(O)c3)C2)cc1 | 2.1 µM | 0.09 µM |
| Oc1cccc([C@H]2CCCNC2)c1 | 0.66 µM | 0.36 µM |
